Measurements as given in patent US10071098B2, “Compositions useful for treating herpes simplex labialis and/or herpes esophagitis, and methods using same” (DREXEL UNIVERSITY, priority 2014, dated 2018).

Experiments:
HSV-1 strain KOS [1] = experiment: HSV-1 replication in OKF6 cells (qPCR genome copy number and viral yield); assay type: cell-based; conditions: for HSV-1 replication over time course of lytic infection (genome copy number, viral yield): MOI=0.1, FIGS. 8A-8B; for HSV-1 replication as measured by qPCR and viral yield, dose dependence: MOI=0.1, analysis at 20 hours post infection, FIGS. 7A-7C; for effect on reducing HSV-1 replication when combined with acyclovir: low dose of inhibitor combined with low doses of acyclovir, MOI=0.1, FIGS. 11A-11B
Description: (§1) All cells were cultured at 37° C. and 5% CO2 and supplemented with 100 U/mL penicillin and 100 U/mL streptomycin. OKF6/TERT2 human oral mucosal keratinocyte cells were cultured in GIBCO Keratinocyte serum free medium (K-sfm) supplemented with bovine pituitary extract, epidermal growth factor, and calcium chloride (Life Technologies Carlsbad, Calif.). These cells are immortalized by expression of hTERT (Dickson, et al., 2000, Mol. Cell. Biol. 20(4):1436-1447). EPC2 human esophageal epithelial cells were cultured in K-sfm (Carlsbad, Calif.). KOS strain (Smith, Proc. Soc. Exp. Biol. Med. Soc. Exp. Biol. Med. 115:814-816) of HSV-1 was used in all infections. All viral stocks were titered on CV-1 monolayers.
(§2) Subconfluent monolayers of cells were grown in six-well plates. Drug treatments were administered 60 minutes prior to infection and continued for the entire duration of each experiment. Infections with KOS strain of HSV-1 were carried out in six-well plates in a 200 μL inoculum volume at 37° C. for 1 hour with intermittent rocking. The cells were then rinsed and overlaid with fresh medium.
(§3) Unless indicated otherwise, KU-55933 (Batch No. 5, 99.7% purity; Tocris Bioscience, Bristol, UK) and Chk2 Inhibitor II (Sigma-Aldrich, St. Louis, Mo.) were used at 10 μM final concentration, phosphonoacetic acid (PAA) at 400 μg/mL (Sigma-Aldrich, St. Louis, Mo.), and acyclovir at 50 μg/mL (Sigma-Aldrich). KU-55933 and Chk2 Inhibitor II were dissolved in dimethyl sulfoxide (DMSO), and the final concentration of DMSO for KU-55933, Chk2 Inhibitor II, and mock treatments for all in vitro experiments was 0.1%.
(§4) Viral genome replication and transcription were measured by quantitative PCR (qPCR). Total DNA and RNA from infected cells were isolated using the DNeasy Blood & Tissue Kit and the RNeasy Mini Kit, respectively (QIAGEN, Hilden, Germany). RNA was converted to cDNA using qScript (Quanta BioSciences, Gaithersburg, Md.). Real-time qPCR was performed with SYBR Green (Bio-Rad, Hercules, Calif.). Target primers for UL30 (DNA polymerase catalytic subunit) and reference primers for glyceraldehyde 3-phosphate dehydrogenase (GAPDH) were used to measure genome replication. Transcription of the three gene families was measured with primers for RL2 (ICP0), UL30 (DNA polymerase catalytic subunit), UL23 (thymidine kinase), and UL44 (gC), with reference primers for the 18S ribosomal RNA (rRNA).

HSV-1 strain KOS [2] = experiment: Protein synthesis of HSV-1 factors in infected OKF6 cells (Western blot); assay type: cell-based; conditions: for protein synthesis of HSV-1 early gene ICP8 / protein synthesis of HSV-1 immediate early gene ICP0 / protein synthesis of HSV-1 leaky-late gene gB / protein synthesis of HSV-1 true-late gene gC: MOI=5, FIGS. 9A-9B; for gC level, inhibitor applied before infection or up to 1 hour post infection / gC level, inhibitor applied between 2 to 3 hours post infection: MOI=5, FIGS. 10A-10B; for gC level, inhibitor applied 4 hours post infection: MOI=5, compared to wild type infection, FIGS. 10A-10B
Description: as §1
Subconfluent monolayers of cells were grown in six-well plates. […] Infections with KOS strain of HSV-1 were carried out in six-well plates in a 200 μL inoculum volume at 37° C. for 1 hour with intermittent rocking. The cells were then rinsed and overlaid with fresh medium.
as §3
Standard protocol was followed for Western blot analysis. Cell lysates were collected in 200 μL Laemmli buffer, vortexed, and boiled at 95° C. for 5 minutes. Protein concentrations were measured by bicinchoninic acid (BCA) assay. SDS-PAGE was followed by transfer onto a polyvinylidene difluoride (PVDF) membrane, which was then blocked in 5% BSA. Primary antibodies against the following proteins were used: ICP0 (mouse monoclonal; Virusys Corporation, Taneytown, Md.), ICP4 and nucleolin (both mouse monoclonal; Santa Cruz Biotechnology, Santa Cruz, Calif.), ICP8 (rabbit polyclonal), glycoprotein B and C (mouse monoclonal and rabbit polyclonal, respectively), ATM and pATM S1981 (rabbit polyclonal and mouse monoclonal, respectively; Rockland), Chk2 and pChk2 T68 (rabbit polyclonal and mouse monoclonal, respectively; Cell Signaling). Blots were stained with secondary antibodies and visualized with the Odyssey near-infrared system (LI-COR, Lincoln, Nebr.).

[3] = test system: acyclovir-resistant strain of HSV-1, dlspTK; experiment: Replication of acyclovir-resistant HSV-1 in OKF6 cells; assay type: cell-based; conditions: MOI=0.1, FIGS. 12A-12B
HSV-1 = experiment: In vivo model of HSV-1 lip infection (herpes simplex labialis) in mice; conditions: BALB/c mice infected on the lower lip; applied every 4 hours for first 12 hours, then every 8 hours for 5 days; FIGS. 13A-13B
Description: KU-55933 and Chk2 Inhibitor II were also efficacious at reducing HSV-1 in an in vivo model of infection (FIGS. 13A-13B). BALB/c mice were infected with HSV-1 on the lower lip, and KU-55933 or Chk2 Inhibitor II was applied every 4 hours for the first 12 hours post infection followed by treatments every 8 hours for the next 5 days. The mice were scored based on the severity of the symptoms, and tracked over the course of infection.

HSV-1 strain KOS [4] = experiment: Transcription of HSV-1 genes in infected OKF6 cells (qPCR); assay type: cell-based; conditions: for effect on viral early factor thymidine kinase: MOI=0.1, FIGS. 9C-9E; for transcription of true-late gene gC: qPCR, MOI=0.1, FIG. 9E
Description: as §1, §2, §3, §4

ATM = ATM activation in HSV-1-infected OKF6 cells (Western blot); assay type: cell-based, human; conditions: MOI=5.0, FIG. 6
Description: All cells were cultured at 37° C. and 5% CO2 and supplemented with 100 U/mL penicillin and 100 U/mL streptomycin. OKF6/TERT2 human oral mucosal keratinocyte cells were cultured in GIBCO Keratinocyte serum free medium (K-sfm) supplemented with bovine pituitary extract, epidermal growth factor, and calcium chloride (Life Technologies Carlsbad, Calif.). […] KOS strain (Smith, Proc. Soc. Exp. Biol. Med. Soc. Exp. Biol. Med. 115:814-816) of HSV-1 was used in all infections. All viral stocks were titered on CV-1 monolayers.
Unless indicated otherwise, KU-55933 (Batch No. 5, 99.7% purity; Tocris Bioscience, Bristol, UK) and Chk2 Inhibitor II (Sigma-Aldrich, St. Louis, Mo.) were used at 10 μM final concentration, phosphonoacetic acid (PAA) at 400 μg/mL (Sigma-Aldrich, St. Louis, Mo.), and acyclovir at 50 μg/mL (Sigma-Aldrich). […]
Standard protocol was followed for Western blot analysis. […] Protein concentrations were measured by bicinchoninic acid (BCA) assay. […]

| SMILES | HSV-1 replication over time course of lytic infection (genome copy number, viral yield) (HSV-1 strain KOS [1]) | HSV-1 replication as measured by qPCR and viral yield, dose dependence (HSV-1 strain KOS [1]) | effect on reducing HSV-1 replication when combined with acyclovir (HSV-1 strain KOS [1]) | protein synthesis of HSV-1 early gene ICP8 (HSV-1 strain KOS [2]) | protein synthesis of HSV-1 immediate early gene ICP0 (HSV-1 strain KOS [2]) | protein synthesis of HSV-1 leaky-late gene gB (HSV-1 strain KOS [2]) | protein synthesis of HSV-1 true-late gene gC (HSV-1 strain KOS [2]) | gC level, inhibitor applied before infection or up to 1 hour post infection (HSV-1 strain KOS [2]) | gC level, inhibitor applied between 2 to 3 hours post infection (HSV-1 strain KOS [2]) | gC level, inhibitor applied 4 hours post infection (HSV-1 strain KOS [2]) | replication (genome copy numbers) of acyclovir-resistant HSV-1 strain dlspTK [3] | severity of symptoms (score) during the time course of infection (HSV-1) | effect on viral early factor thymidine kinase (HSV-1 strain KOS [4]) | transcription of true-late gene gC (HSV-1 strain KOS [4]) | ATM activation (ATM) |
| --- | --- | --- | --- | --- | --- | --- | --- | --- | --- | --- | --- | --- | --- | --- | --- |
| NC(=O)c1ccc2[nH]c(-c3ccc(Oc4ccc(Cl)cc4)cc3)nc2c1 [Chk2 Inhibitor II, 2-(4-(4-chlorophenoxy)phenyl)-1H-benzimidazole-5-carboxamide] | reduced HSV-1 replication throughout the entire time course of lytic infection | reduced HSV-1 replication in a dose dependent manner | additive to greater-than-additive effect | no impact | no impact | no impact | large reduction | large reduction of gC | Low levels of gC were produced | no impact on gC levels | greatly reduced replication | statistically significant decrease in the severity of symptoms | minimal effect | prevent the transcription |  |
| O=c1cc(-c2cccc3c2Sc2ccccc2S3)oc(N2CCOCC2)c1 [KU-55933, 2-(morpholin-4-yl)-6-(thianthren-1-yl)-pyran-4-one] | reduced HSV-1 replication throughout the entire time course of lytic infection | reduced HSV-1 replication in a dose dependent manner | additive to greater-than-additive effect | no impact | no impact | no impact | large reduction | large reduction of gC | Low levels of gC were produced | no impact on gC levels | greatly reduced replication | statistically significant decrease in the severity of symptoms | minimal effect | reduction | inhibited ATM activation |
